Reference: BindingDB's records for doi:10.1016/j.ejmech.2015.10.016 (University of Groningen, 2015)

target: T1, Histone acetyltransferase KAT8 (Homo sapiens, UniProt Q9H7Z6); assay: Inhibition of recombinant N-terminal His6-tagged KAT8 (unknown origin) expressed in Escherichia Coli BL21 DE3 cells assessed as reduction of Co A level using histone H4 substrate after 15 mins by CPM fluorescence assay
T1 sequence (Q9H7Z6 whole entry): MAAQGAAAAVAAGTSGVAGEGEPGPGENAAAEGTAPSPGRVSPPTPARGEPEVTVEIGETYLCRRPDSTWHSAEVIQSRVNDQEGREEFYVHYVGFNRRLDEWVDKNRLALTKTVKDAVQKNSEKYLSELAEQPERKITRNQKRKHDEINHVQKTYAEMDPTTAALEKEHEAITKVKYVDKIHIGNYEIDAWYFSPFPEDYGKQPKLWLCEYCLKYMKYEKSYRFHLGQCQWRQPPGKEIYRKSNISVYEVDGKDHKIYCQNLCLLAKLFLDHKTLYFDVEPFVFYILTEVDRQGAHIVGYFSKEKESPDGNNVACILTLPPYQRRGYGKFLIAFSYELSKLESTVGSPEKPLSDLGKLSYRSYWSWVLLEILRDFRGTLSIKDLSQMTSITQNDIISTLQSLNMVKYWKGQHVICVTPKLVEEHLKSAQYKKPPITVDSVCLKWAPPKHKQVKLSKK

Compound | IC50 [µM]
CC1=NN(c2ccc(C(=O)O)cc2)C(=O)/C1=C/c1ccc(-c2cc(C)c(C)cc2[N+](=O)[O-])o1 | > 631
CCCCCCCCCCc1cccc(O)c1C(=O)O | 123
CCCCCCCCCCCCCCCc1ccc(O)c(C(=O)O)c1 | 263
CCCCCCCCCCc1ccc(O)c(C(=O)O)c1 | 191
O=C(O)c1c(O)cccc1CCCCCCCCCCCO | 525
O=C(O)c1c(O)cccc1CCCCCO | > 631
CCCCCc1ccc(O)c(C(=O)O)c1 | > 631
CCCCCCCSCC(=O)c1ccccc1O | > 631
CCCCCc1cccc(O)c1C(=O)O [6-Pentylsalicylic Acid] | > 631
